Assay results as given in article PMC10489817, “2-Alkyl-Substituted-4-Amino-Thieno[2,3-d]Pyrimidines: Anti-Proliferative Properties to In Vitro Breast Cancer Models” (Molecules, 2023).
Read-outs that look alike come from different tables or passages of the source. Blank lines part the entries; values can stand above or below the compound they belong to.

Key:
MDA-MB-435 = test system: MDA-MB-435; set-up: method as in PMID 23538397; details: cited from earlier work
[1] = test system: A549, HCT116 and MCF-7 cell lines; set-up: method as in doi:10.1016/j.cclet.2014.05.043; details: cell line not stated; cited from earlier work
MCF-7 = assay: MTT anti-proliferative test, MCF-7; format: cell-based, human; details: for IC50: Homo sapiens, MCF7, MTT
Description: (§1) The MCF-10A cell line (normal human mammary epithelial cells) served as a reference control.
(§2) All breast cell lines (MCF-10A, MCF-7, and MDA-MB-231) were purchased from the American Type Culture Collection—ATCC (Manassas, VA, USA). The MCF-7 and MDA-MB-231 were cultivated in Dulbecco’s modified Eagle’s medium (DMEM) and supplemented with 10% fetal bovine serum (FBS), 1% sodium pyruvate, and 1% MEM non-essential amino acids (NEAA) without antibiotics. The non-tumorigenic breast cell line (MCF-10A) was cultivated in DMEM medium (Sigma-Aldrich, St. Louis, MO, USA) and supplemented with 10% FBS, 1% sodium pyruvate, 1% non-essential amino acids (NEAA), 20 ng/mL human epithelia growth factor (hEGF), 10 μg/mL insulin, and 0.5 μg/mL hydrocortisone without antibiotics. All cell lines were maintained in a humidified atmosphere, with 5% CO2 at 37 °C.
(§3) Using the standard MTT-dye reduction assay described by Mosmann, the anti-proliferative activity was tested. The method is based on the metabolism of the tetrazolium salt MTT to insoluble formazan. The formazan absorption was registered using a microplate reader at λ = 540 nm. The measured absorption is an indicator of cell viability and metabolic activity. Anti-proliferative activities were expressed as IC50 values (concentrations required for 50% inhibition of cell growth), calculated using non-linear regression analysis (GraphPad Software, San Diego, CA, USA).

MDA-MB-231 = assay: MTT anti-proliferative test, MDA-MB-231; format: cell-based, human
Description: as §1, §2, §3

MCF-10A = assay: MTT anti-proliferative test, MCF-10A; format: cell-based; details: Homo sapiens
Description: as §1, §2, §3

BALB 3T3 cells = assay: in vitro 3T3 NRU test, phototoxicity; format: cell-based, mouse; details: for IC50: Mus musculus, light or radiation study
Protocol: (§4) Compounds 2–5 were studied for cytotoxicity/phototoxicity by an in vitro 3T3 NRU-test. The cell line BALB 3T3, clone A31 (mouse embryo fibroblasts), was incubated with the test compounds at a concentration from 15 to 4000 µg/mL for 24 h at 37 °C, 5% CO2, and 95% humidity. The cytotoxicity and phototoxicity were expressed in percentages relative to the negative control determined. […] Based on the dose–response curves, the CC50/PC50 values (50% cytotoxic/phototoxic concentration) were calculated by nonlinear regression analysis (Table 1). The CC50 values can be used to calculate the PIF (photo-irritancy factor) for each test compound according to the following formula: PIF = CC50/PC50.
(§5) BALB/3T3 cells were cultured in 75 cm^2 tissue culture flasks in DMEM, 10% FBS, 2 mM glutamine, and antibiotics (penicillin 100 U/mL and streptomycin-100 µg/mL) at 37 °C, 5% CO2, and 90% relative humidity. Cytotoxicity/phototoxicity was assessed by a validated BALB/3T3 clone A31 neutral red uptake assay (3T3 NRU test). Briefly, cells were plated in a 96-well microtiter plate at a density of 1 × 10^4 cells/100 µL/well and incubated for 24 h. A wide concentration range was applied for the test compounds. For the phototoxicity tests, 96-well plates were irradiated with a dose of 2.4 J/cm^2, and the cells were incubated for an additional 24 h. After treatment with neutral red medium, washing, and treatment with the ethanol/acetic acid solution, the absorption was measured on a TECAN microplate reader (TECAN, Grödig, Austria) at a wavelength of 540 nm. The light source which we used was a light-emitting diode (LED) matrix—an artificial solar light simulator Helios-iO, model LE-9ND55-H—5500K (SERIC Ltd., Tokyo, Japan).
(§6) Cytotoxicity/phototoxicity were expressed as CC50/PC50 values (concentrations required for 50% cytotoxicity/phototoxicity), calculated using non-linear regression analysis (GraphPad Software GraphPad Prism 9.5.1, San Diego, CA, USA). The CC50 values were used to calculate the PIF (photo-irritancy factor) for each test substance, according to the following formula:
PIF = Cytotoxicity (CC50)/Phototoxicity (PC50)

[2] = in vitro 3T3 NRU test, cytotoxicity; format: cell-based, mouse; details: mouse, BALB/3T3 clone A31 cells (mouse embryo fibroblasts)
Protocol: as §4, §5
as §6, with “formula: […]” for “formula:”

Structure (SMILES): Cc1sc2nc(NCc3ccccc3)[nH]c(=O)c2c1C [2-(benzylamino)-5,6-dimethylthieno[2,3-d]pyrimidin-4(3H)-one]
growth percent (GP) (MDA-MB-435): −31.02%

Structure (SMILES): Cc1cc2c(OCc3cc(-c4ccc(Cl)cc4)no3)ncnc2s1 [6-methyl-4-{[3-(4-chlorophenyl)-isoxazol-5-yl-]-methoxy}-thieno[2,3-d]pyrimidine]
IC50 [1]: 0.00421 µM

Structure (SMILES): N.N.[Cl][Pt][Cl] [Cisplatin, reference compound]
selective index in the positive control (MCF-7; tumor cell line not stated, paragraph on MCF-7): 25

IC50 (MDA-MB-231; Homo sapiens, MDA-MB-231, MTT, read-out: IC50 MDA-MB-231 (converted)): 400 µM
IC50 (MDA-MB-231; Homo sapiens, MDA-MB-231, MTT, read-out: IC50 of Mean ± SD, Anti-Proliferative Activity MDA-MB-231): 131 ± 3 µg/mL
IC50 (MDA-MB-231; MTT, read-out: IC50 MDA-MB-231 (converted)): 440 µM
melting point: 163 to 165 °C
IC50 (MCF-7; read-out: IC50 MCF-7 (converted)): 45 µM
IC50 (MCF-7; read-out: IC50 MCF-7 (text)): 13.4 µg/mL
IC50 (MCF-7; read-out: IC50 of Mean ± SD, Anti-Proliferative Activity MCF-7): 13.4 ± 0.8 µg/mL
Structure (SMILES): CCOC(=O)c1sc2nc(CCCl)nc(N)c2c1C [Compound 3, Ethyl 4-Amino-2-(2-Chloroethyl)-5-Methylthieno[2,3-d] Pyrimidine-6-Carboxylate]
SI (selective index) MDA-MB-231 (MDA-MB-231; IC50 MCF-10A/IC50 MDA-MB-231): 0.3
IC50 (MCF-10A; read-out: IC50 MCF-10A (converted)): 100 µM
IC50 (MCF-10A; read-out: IC50 of Mean ± SD, Anti-Proliferative Activity MCF-10A): 45.3 ± 3.5 µg/mL
IC50 (BALB 3T3 cells; BALB 3T3, irradiated 2.4 J/cm^2 (PC50), read-out: IC50 of Mean ± SD, Phototoxicity): 545 ± 40.1 µg/mL
IC50 (BALB 3T3 cells; BALB 3T3, irradiated, value in brackets, read-out: IC50, Phototoxicity (converted)): 1900 µM
PIF (photo-irritancy factor) (BALB 3T3 cells; PIF = CC50/PC50, <2 not phototoxic): 1.2
IC50 at 24 h ([2]; BALB 3T3, 24 h, NRU, no irradiation (CC50), read-out: IC50 of Mean ± SD, Cytotoxicity): 674 ± 31.8 µg/mL
IC50 at 24 h ([2]; BALB 3T3, value in brackets, read-out: IC50, Cytotoxicity (converted)): 2200 µM
SI (selective index) MCF-7 (MCF-7; IC50 MCF-10A/IC50 MCF-7): 3.4
